Measured values from patent US6953779B2, “Melanocortin receptor antagonists and modulations of melanocortin receptor activity” (The Regents of the University of California, priority 1998, dated 2005).
Square brackets hold non-standard residues; d marks the D form. Peptide text beside a SMILES is read from it. * marks the point of attachment. Benzoyl(4-OMe) = COc1ccc(C(=O)*)cc1

Key:
[1] = tested on: dispersion of melanin initiated by norepinephrine, serotonin, vasotocin, PACAP-27; assay: Selectivity: melanin dispersion initiated by other ligands in melanophores; type: cell-based, Xenopus laevis; settings: 30 nM
Experimental: The selectivity of the MC receptor antagonism by dynorphin A(6-12) analogs was examined.
Melanophore responses were determined by measuring absorbance (OD) ratios taken through a monolayer of cells using a FisherBiotec BT2000 Microplate Reader (Pittsburgh, Pa.). Absorbance was measured before and after a 90 minute exposure to test peptides and then expressed as percent of initial absorbance. (Measurements were taken after 60 minutes pretreatment with 10 nM melatonin to initiate readings from an aggregated state.)

[2] = tested on: atypical MC receptor in Cos-7 cells; assay: cAMP concentration-response to α-MSH in Cos-7 cells; type: cell-based
Experimental: (§1) Peptide concentration-response measurements are made in HEK-293 cells by quantifying cAMP levels using a [8-^3H]-CAMP kit from Amersham. Briefly, cells transfected with MC receptors, plated to confluency in 96-well tissue culture plates, are rinsed for 1 hr with 70% (vol/vol) L-15 medium containing 0.5% bovine serum albumin. […] Cellular debris was separated from extracted samples by centrifugation, 400 μL aliquots of the supernatant lyophilized, and total cAMP content quantified by isotope counting.
(§2) Concentration response measurements were made also as described in Example 2, but in Xenopus fibroblasts, COS-7, HEK-293, and Y1 cells.

[3] = target: T1, ACTH (MCR-2) receptor endogenous to murine Y1 adrenocortical cells (Mus musculus, UniProt Q64326); assay: cAMP concentration-response to ACTH-(1-24) in Y1 cells; type: cell-based; settings: for shift of the concentration-response curve of ACTH-(1-24) to the right: 30 μM
T1 construct: the ACTH (MCR-2) receptor endogenous to murine Y1 adrenocortical cells; endogenous in cells; host or cells: murine Y1 adrenocortical cells
T1 sequence (Q64326 whole entry): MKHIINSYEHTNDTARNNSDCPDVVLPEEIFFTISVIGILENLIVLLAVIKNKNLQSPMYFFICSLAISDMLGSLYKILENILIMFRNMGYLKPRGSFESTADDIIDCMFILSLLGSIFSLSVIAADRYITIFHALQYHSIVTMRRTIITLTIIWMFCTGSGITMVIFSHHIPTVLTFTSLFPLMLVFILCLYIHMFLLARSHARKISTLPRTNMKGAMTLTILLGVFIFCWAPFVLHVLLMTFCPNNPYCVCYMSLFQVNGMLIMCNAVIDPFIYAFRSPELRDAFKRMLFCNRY
T1 sequence (Q9D159 whole entry partner): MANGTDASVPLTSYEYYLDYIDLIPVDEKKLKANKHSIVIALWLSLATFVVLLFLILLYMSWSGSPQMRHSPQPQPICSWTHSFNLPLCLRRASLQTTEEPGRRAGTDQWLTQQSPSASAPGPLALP
Experimental: as §1, §2

[4] = target: T2, MCR-1 (Homo sapiens, UniProt Q01726); settings: at concentrations up to 100 nM; Ollmann et al.; cited from earlier work
T2 sequence (Q01726 whole entry): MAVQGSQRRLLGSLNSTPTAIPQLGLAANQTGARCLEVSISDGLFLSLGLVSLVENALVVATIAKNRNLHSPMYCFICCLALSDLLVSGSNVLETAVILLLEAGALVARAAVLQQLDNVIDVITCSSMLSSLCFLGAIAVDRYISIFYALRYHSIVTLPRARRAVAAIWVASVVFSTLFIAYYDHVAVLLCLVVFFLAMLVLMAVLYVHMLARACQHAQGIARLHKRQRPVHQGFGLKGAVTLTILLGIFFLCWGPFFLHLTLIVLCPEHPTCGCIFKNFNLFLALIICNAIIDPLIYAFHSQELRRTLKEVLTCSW

[5] = target: T3, MCR-4 (Homo sapiens, UniProt P32245); settings: Ollmann et al.; cited from earlier work
T3 sequence (P32245 whole entry): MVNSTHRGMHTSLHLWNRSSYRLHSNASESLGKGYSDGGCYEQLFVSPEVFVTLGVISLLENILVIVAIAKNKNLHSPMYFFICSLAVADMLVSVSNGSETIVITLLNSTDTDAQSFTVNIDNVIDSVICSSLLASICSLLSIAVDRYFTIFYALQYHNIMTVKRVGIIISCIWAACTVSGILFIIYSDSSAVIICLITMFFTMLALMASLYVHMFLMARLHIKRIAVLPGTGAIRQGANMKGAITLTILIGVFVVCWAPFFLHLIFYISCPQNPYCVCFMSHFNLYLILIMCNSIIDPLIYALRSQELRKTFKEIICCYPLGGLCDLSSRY

[6] = target: T4, MCR-3 (Homo sapiens, UniProt P41968); settings: Ollmann et al.; cited from earlier work
T4 sequence (P41968 whole entry): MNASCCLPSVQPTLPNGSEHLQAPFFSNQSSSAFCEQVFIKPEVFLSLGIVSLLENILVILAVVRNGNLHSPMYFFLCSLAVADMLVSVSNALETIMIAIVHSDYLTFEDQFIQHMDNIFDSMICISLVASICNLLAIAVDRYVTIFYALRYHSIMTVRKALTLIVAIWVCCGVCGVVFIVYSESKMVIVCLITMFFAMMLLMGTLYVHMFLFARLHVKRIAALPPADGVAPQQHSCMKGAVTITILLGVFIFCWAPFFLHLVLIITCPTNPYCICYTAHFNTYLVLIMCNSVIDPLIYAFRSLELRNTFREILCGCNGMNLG

[7] = tested on: heat-induced edema in the anesthetized rat's paw; assay: Suppression of heat-induced edema in the anesthetized rat's paw (anti-inflammatory); type: in vivo
[8] = target: T5, MC receptors endogenous to Xenopus melanophores (Xenopus laevis, UniProt A0A1L8GF34); settings: Quillan and Sadée 1997, cited from earlier work
T5 sequence (A0A1L8GF34 1-317): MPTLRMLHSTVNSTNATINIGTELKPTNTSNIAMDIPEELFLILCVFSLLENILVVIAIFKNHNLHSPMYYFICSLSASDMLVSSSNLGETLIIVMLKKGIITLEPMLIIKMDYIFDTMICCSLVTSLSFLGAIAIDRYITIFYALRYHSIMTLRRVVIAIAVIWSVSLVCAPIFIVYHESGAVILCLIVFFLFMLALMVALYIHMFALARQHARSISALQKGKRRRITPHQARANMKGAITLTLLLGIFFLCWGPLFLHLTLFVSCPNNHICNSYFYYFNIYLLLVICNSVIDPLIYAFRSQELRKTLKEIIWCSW

[9] = target: T3, MCR-4; assay: cAMP concentration-response to α-MSH in HEK-293 cells transfected with human MCR-4; type: cell-based; design: expressed in transfected cells; settings: presence and absence of 30 μM antagonist
Experimental: A second method for studying MCR antagonists is to use mammalian cells stably transfected with the cDNA for various human MCR.
Human embryonic kidney (HEK-293) cells were maintained in modified Eagle's medium (DMEM/H-16/F-12) with 10% fetal calf serum (FBS), 100 U/mL penicillin “G” and 100 μg/mL streptomycin (P/S; Gemini). Transfections were performed using cDNA containing the human MCR-1 receptor (pcDNAI/NEO.hMC1), or MCR-4 (pcCMV.hMC4) receptors. HEK-293 cells are stably transformed with the human MCR-1 and MCR-4 receptors by electroporating 20 μg of plasmid cDNA using a Gene Pulser transfection apparatus (450 V, 960 μF; BioRad, Hercules, Calif.). After six days, stable MC clonal cell lines were selected by addition of 400 μg/ml G-418 to the medium and kept frozen for future use.
as §1
(§3) HEK-293 cells were maintained and transfected As described in Example 2. […]

[10] = target: T2, MCR-1; assay: cAMP concentration-response to α-MSH in HEK-293 cells transfected with human MCR-1; type: cell-based; design: expressed in transfected cells; settings: presence and absence of 30 μM antagonist
Excerpt: (§4) A second method for studying MCR antagonists is to use mammalian cells stably transfected with the cDNA for various human MCR. These transfected cells manifest an increased CAMP response to α-MSH stimulation and agents which antagonize MCR will block this stimulating effect of α-MSH. The inhibitory effects of antagonists can be quantified by the change in the effective concentration (EC50) of α-MSH i the presence of antagonist, or by computation of Ki value by a Schild regression analysis.
Human embryonic kidney (HEK-293) cells were maintained in modified Eagle's medium (DMEM/H-16/F-12) with 10% fetal calf serum (FBS), 100 U/mL penicillin “G” and 100 μg/mL streptomycin (P/S; Gemini). Transfections were performed using cDNA containing the human MCR-1 receptor (pcDNAI/NEO.hMC1), or MCR-4 (pcCMV.hMC4) receptors. HEK-293 cells are stably transformed with the human MCR-1 and MCR-4 receptors by electroporating 20 μg of plasmid cDNA using a Gene Pulser transfection apparatus (450 V, 960 μF; BioRad, Hercules, Calif.). […]
Peptide concentration-response measurements are made in HEK-293 cells by quantifying cAMP levels using a [8-^3H]-CAMP kit from Amersham. […] Cellular debris was separated from extracted samples by centrifugation, 400 μL aliquots of the supernatant lyophilized, and total cAMP content quantified by isotope counting. […]

[11] = target: T4, MCR-3; assay: cAMP concentration-response to α-MSH in HEK-293 cells transfected with human MCR-3; type: cell-based; design: expressed in transfected cells; settings: presence and absence of 30 μM antagonist
Excerpt: as §4
Peptide concentration-response measurements are made in HEK-293 cells by quantifying cAMP levels using a [8-^3H]-CAMP kit from Amersham. Briefly, cells transfected with MC receptors, plated to confluency in 96-well tissue culture plates, are rinsed for 1 hr with 70% (vol/vol) L-15 medium containing 0.5% bovine serum albumin. After a 30 min exposure to test ligands, HEK-293 cells are rinsed twice with ice-cold 70% phosphate-buffered saline (0.07 g/L CaCl2, 0.07 g/L MgCl2.6H2O, 0.14 g/L KH2PO4, 1.51 g/L Na2HPO4.7H2O, 0.14 g/L KCl, 5.6 g/L NaCl, pH 7.4), and intracellular CAMP extracted with 1 mL of 60% (vol/vol) ethanol. Cellular debris was separated from extracted samples by centrifugation, 400 μL aliquots of the supernatant lyophilized, and total cAMP content quantified by isotope counting.
as §3

[12] = tested on: B16-F1 mouse melanoma cells; settings: Siegrist et al.; read-out: antiproliferative half-maximal effective concentration; cited from earlier work

**Q.** Which “effect on concentration-response curves evoked with norepinephrine, serotonin, PACAP-27, and Arg8-vasotocin” value [1] does the source give for CSCC[C@@H]1NC(=O)[C@H](C)NC(=O)[C@H]([C@@H](C)O)NC(=O)CNC(=O)[C@H](CC(C)C)NC(=O)[C@H](CCCCN)NC(=O)[C@H](CCCNC(=N)N)NC(=O)[C@@H]2CSSC[C@@H]3NC(=O)[C@@H]4CCCN4C(=O)[C@H](C(C)C)NC(=O)[C@H](CCC(N)=O)NC(=O)[C@H](CCC(N)=O)NC(=O)CNC(=O)[C@H](CC(C)C)NC(=O)[C@@H]4CSSC[C@H](NC(=O)[C@H]([C@@H](C)O)NC(=O)[C@H](C)NC(=O)[C@H](CSSC[C@@H](C(=O)N[C@@H](CO)C(=O)N[C@@H](CCCNC(=N)N)C(=O)N[C@H](C(N)=O)[C@@H](C)O)NC(=O)[C@@H]5CCCN5C(=O)[C@H](CC(N)=O)NC1=O)NC(=O)[C@@H]1CCCN1C(=O)[C@H](CC(=O)O)NC(=O)[C@H](CSSC[C@H](NC(=O)[C@H](CCCNC(=N)N)NC(=O)[C@H](CCCNC(=N)N)NC(=O)[C@H](CO)NC(=O)[C@@H](N)CO)C(=O)N[C@@H](C(C)C)C(=O)N[C@@H](CCCNC(=N)N)C(=O)N[C@@H](CC(C)C)C(=O)N[C@@H](Cc1c[nH]cn1)C(=O)N[C@@H](CCC(=O)O)C(=O)N[C@@H](CO)C(=O)N4)NC3=O)C(=O)N[C@@H](Cc1ccc(O)cc1)C(=O)N[C@H]1CSSC[C@H](NC(=O)[C@H](Cc3ccccc3)NC(=O)[C@H](C)NC(=O)[C@H](CC(N)=O)NC(=O)[C@H](Cc3ccccc3)NC(=O)[C@H](Cc3ccccc3)NC(=O)[C@H](CCCNC(=N)N)NC1=O)C(=O)N[C@@H](Cc1ccc(O)cc1)C(=O)N2 [ARP-(83-132)-NH2, SSRRCVRL HESCLGQQVPCCDPCATCYCRFFNAFCYCRKLGTAMNPCSRT] here?
**A.** Its value is “no effect”.

**Q.** Which EC50 ([2]; read-out: EC50 of α-MSH for cAMP production) does the source give for α-MSH here?
**A.** The EC50 was about 0.08 µM.

**Q.** What about the “stimulating cAMP accumulation in Y1 cells” value ([3]; up to concentrations of 10 μM) of the same molecule?
**A.** Its value is “not effective”.

**Q.** Which “effect on MCR-1” value [4] does the source give for “agouti-related protein (ARP): agouti-related protein cloned from non-epidermal tissues (SSRRCVRLHESCLGQQVPCCDPCATCYCRFFNAFCYCRKLGTAMNPCSRT; UniProt O00253 83-132, looked up)” here?
**A.** Its value is “little effect”.

**Q.** What about the “inhibition for MCR-4” value [5] of the same molecule?
**A.** Its value is “dose dependent inhibition”.

**Q.** And the “inhibition for MCR-3” value [6]?
**A.** The value was “dose dependent inhibition”.

**Q.** What does the source list for CC[C@H](C)[C@H](NC(=O)[C@H](CCCNC(=N)N)NC(=O)[C@H](CCCNC(=N)N)NC(=O)[C@H](CC(C)C)NC(=O)[C@H](Cc1ccccc1)NC(=O)CNC(=O)CNC(=O)[C@@H](N)Cc1ccc(O)cc1)C(=O)N[C@@H](CCCNC(=N)N)C(=O)N1CCC[C@H]1C(=O)N[C@@H](CCCCN)C(=O)N[C@@H](CC(C)C)C(=O)N[C@@H](CCCCN)C(N)=O [dynorphin A(1-13)-NH2]?
**A.** shift of α-MSH EC50 ([2]; 30 μM): ~50 fold; Kd ([2]; read-out: K4): ~1 µM; effect on basal or forskolin (3 μM) stimulated cAMP production ([3]; Y1 cells): did not significantly affect; shift of the concentration-response curve of ACTH-(1-24) to the right ([3]; Y1 cells): ~200 fold; estimated Kd ([3]; from shift in the ACTH concentration-response curve): submicromolar range

**Q.** With Dynorphin A(2-17) [reference compound] as the molecule, how does the anti-edema activity ([7]; in words) read?
**A.** Its anti-edema activity is “at least twice more active”.

**Q.** What about the IC50 ([8]; against 600 pM α-MSH) of the same molecule?
**A.** The IC50 was 0.19 µM.

**Q.** With Dynorphin A(6-17) as the molecule, how does the antagonist activity [8] read?
**A.** The antagonist activity was “inactive”.

**Q.** For CC[C@H](C)[C@H](NC(=O)[C@H](CCCNC(=N)N)NC(=O)[C@H](CCCNC(=N)N)NC(=O)[C@H](CC(C)C)NC(=O)[C@H](Cc1ccccc1)NC(=O)CNC(=O)CN)C(=O)N[C@@H](CCCNC(=N)N)C(=O)N1CCC[C@H]1C(=O)N[C@@H](CCCCN)C(=O)N[C@@H](CC(C)C)C(=O)N[C@@H](CCCCN)C(=O)O [dynorphin A(2-13)], which “Dose ratio from α-MSH dose-response curves” value (shortened to “Dose ratio”) [9] is on record?
**A.** The value was 147±13.

**Q.** What about the “Dose ratio” value [10] of the same molecule?
**A.** The value was 250±31.

**Q.** What about the “Dose ratio” value [11] of the same molecule?
**A.** The value was 128±44.

**Q.** And the “shift of the concentration-response curve of ACTH-(1-24) to the right” value ([3]; Y1 cells)?
**A.** The value was “approximately 15 fold”.

**Q.** Which “Anti-Inflammatory ED50” value ([7]; suppression of heat-induced edema in the anesthetized rat's paw, i) does the source give for CC[C@H](C)[C@H](NC(=O)[C@H](CCCNC(=N)N)NC(=O)[C@H](CCCNC(=N)N)NC(=O)c1ccc(OC)cc1)C(=O)N[C@H](CCCNC(=N)N)C(=O)N1CCC[C@H]1C(=O)N[C@H](CCCCN)C(=O)N[C@H](CC(C)C)C(N)=O [SQW-2, p-anisoyl-Arg-Arg-Ile-D-Arg-Pro-D-Lys-D-Leu-amide] ({Benzoyl(4-OMe)}-RRI[dR]P[dK][dL]-NH2) here?
**A.** The value was 0.085 µmol/kg.

B1: ASP: agouti-signaling protein, MCR antagonist elaborated by hair follicle melanocytes (protein, UniProt P42127 23-132, looked up)
Agouti-signaling protein: HLPPEEKLRDDRSLRSNSSVNLLDVPSVSIVALNKKSKQIGRKAAEKKRSSKKEASMKKVVRPRTPLSAPCVATRNSCKPPAPACCDPCASCQCRFFRSACSCRVLSLNC
**Q.** With B1 as the molecule, how does the EC50 [12] read?
**A.** Its EC50 is 0.013 µM.
